According to article PMC9965520, “An Efficient Peptidomics Screening for Exogenous Substrates and Inhibitory Peptides of the Dipeptidase ACE from Milk Hydrolysate” (Pharmaceutics, 2023):
Where two headings read alike, the source gives them in different places. No end group written: not given here.

Columns and labels:
ACE [1] = target: T1, ACE (Oryctolagus cuniculus, UniProt P12822); assay: ACE hydrolysis of synthetic substrate candidates monitored by LC-MS at different incubation times; format: in vitro ADME, rabbit; set-up: ACE (EC 3.4.15.1, 1 unit) from rabbit lungs; purchased Sigma Chemical Co. (St. Louis, MO, USA); host or cells: rabbit lungs (tissue-derived enzyme); conditions: 37 °C; for Substrate content (%) 30min / Substrate content (%) 60min / Substrate content (%) 90min / Substrate content (%) 120min / Substrate content (%) 150min / Substrate content (%) 180min: synthetic peptide with ACE, RS% = As/(As+Ap)x100 from SIC peak areas, LC-MS
T1 sequence (P12822 34-1310): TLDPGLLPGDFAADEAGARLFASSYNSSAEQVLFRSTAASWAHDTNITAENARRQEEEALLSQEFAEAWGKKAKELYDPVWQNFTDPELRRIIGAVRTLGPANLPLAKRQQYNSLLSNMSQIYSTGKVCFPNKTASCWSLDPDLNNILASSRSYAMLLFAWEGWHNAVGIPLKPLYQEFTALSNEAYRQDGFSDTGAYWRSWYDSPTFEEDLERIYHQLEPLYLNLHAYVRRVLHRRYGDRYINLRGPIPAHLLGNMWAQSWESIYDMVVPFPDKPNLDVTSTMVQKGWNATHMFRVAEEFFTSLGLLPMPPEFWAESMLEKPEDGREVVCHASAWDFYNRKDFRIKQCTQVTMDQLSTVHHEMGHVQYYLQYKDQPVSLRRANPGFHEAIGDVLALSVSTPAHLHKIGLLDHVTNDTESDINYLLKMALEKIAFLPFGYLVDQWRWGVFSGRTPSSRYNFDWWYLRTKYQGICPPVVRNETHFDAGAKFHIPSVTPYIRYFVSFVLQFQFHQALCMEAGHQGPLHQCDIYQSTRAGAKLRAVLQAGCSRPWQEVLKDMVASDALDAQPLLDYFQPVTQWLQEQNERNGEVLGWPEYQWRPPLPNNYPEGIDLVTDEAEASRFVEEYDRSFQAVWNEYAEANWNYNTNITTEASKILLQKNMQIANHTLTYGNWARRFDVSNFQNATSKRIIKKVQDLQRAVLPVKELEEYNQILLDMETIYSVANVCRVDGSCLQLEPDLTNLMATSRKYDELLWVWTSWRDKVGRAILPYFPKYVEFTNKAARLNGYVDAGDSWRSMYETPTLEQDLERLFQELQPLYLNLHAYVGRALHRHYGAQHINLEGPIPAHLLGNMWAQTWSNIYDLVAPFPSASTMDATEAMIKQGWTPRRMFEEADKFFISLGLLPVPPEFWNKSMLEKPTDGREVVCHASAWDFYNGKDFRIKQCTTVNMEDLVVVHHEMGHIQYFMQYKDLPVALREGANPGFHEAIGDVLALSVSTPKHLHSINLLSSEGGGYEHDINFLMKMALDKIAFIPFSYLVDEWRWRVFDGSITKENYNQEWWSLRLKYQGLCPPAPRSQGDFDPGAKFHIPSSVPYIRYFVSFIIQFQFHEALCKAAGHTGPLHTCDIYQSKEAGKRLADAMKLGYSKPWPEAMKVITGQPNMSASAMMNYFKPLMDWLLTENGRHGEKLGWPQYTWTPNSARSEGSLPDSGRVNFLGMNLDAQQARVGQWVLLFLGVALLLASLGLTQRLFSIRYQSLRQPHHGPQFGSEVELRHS
Method: To confirm the reactivity of the identified peptide candidates towards ACE, the synthetic peptides were individually mixed with ACE and incubated at 37 °C for 3 h. The remaining peptide substrate and the resulting product were analyzed using LC-MS/MS. Meanwhile, the degradation rate of each peptide was monitored every 30 min using LC-MS. The percentage of the remaining substrate (RS%) at each time point was calculated as As/(As + Ap) 100%. In which, As is the selective ion chromatogram (SIC) peak area of remaining substrate and Ap is the peak area of the resulting product. The RS% was further compared with the D/H ratio obtained in Section 2.4.

ACE [2] = target: T1, ACE; assay: ACE inhibitory (ACEI) assay with HHL as substrate, with and without ACE pre-incubation; format: biochemical, rabbit; set-up: ACE (EC 3.4.15.1, 1 unit) from rabbit lungs; purchased Sigma Chemical Co. (St. Louis, MO, USA); host or cells: rabbit lungs (tissue-derived enzyme); conditions: 37 °C, HA by HPLC-UV 228 nm, mean ± SD, triplicate
Method: The ACE inhibitory assay was performed based on the previous report with slight modification. […] The mixture was first incubated at 37 °C statically for 30 min, and then shaken at 200 rpm for another 30 min. The reaction was terminated using 60 µL of HCl (1 M). The hydrolyzed product of HHL, HA, was analyzed by HPLC (Hitachi Chromaster, Tokyo, Japan) equipped with a NUCLEODUR® C18 HTec column (4.6 mm × 250 mm; particle size 5 µm, Macherey-Nagel, Düren, Germany) and quantified by its chromatographic peak area. The mixture was separated using an isocratic elution with the solution containing 24% ACN and 0.1% TFA at a constant flow rate of 1 mL/min. The substrate and product were monitored using a UV-Vis detector at a wavelength of 228 nm. The ACEI activity (%) was calculated as shown below: ACEI activity (%) = [1 – (Ainhibitor/Ablank)] × 100% where Ainhibitor and Ablank were the resulting HA peak areas in the mixtures with and without inhibitors, respectively. Along with the peptide substrate’s ACEI activity, its IC50 value was also determined using a nonlinear regression between ACE inhibition (%), and the logarithm of inhibitor concentrations could be carried out with GraphPad Prism 5.0 (GraphPad Software, Inc., La Jolla, CA, USA).

ACE [3] = target: T1, ACE; conditions: Ang-I (1 μg) + peptide (1 μg), ACE 0.05 mU/µL, 200 mM borate buffer, 300 mM NaCl, pH 8.3, 37 °C, 3 h; RA% = AI/(AI+AII)x100, LC-MS SIC
Method: To a mixture of Ang-I (1 μg) and peptide substrate (1 μg) in 50 µL of borate buffe (200 mM borate buffer, 300 mM NaCl, pH 8.3), 20 µL of ACE (0.05 mU/µL) was added. The mixture was incubated at 37 °C and monitored using LC-MS/MS at 1, 2, 3, 4, 6, and 10 h. The LC separation was performed on Syncronis C18 column (150 mm × 2.1 mm, 5 µm, Thermo Scientific) and eluted with the mobile phase A (5% ACN and 0.1% FA) and B (95% ACN and 0.1% FA) at a flow rate of 350 µL/min. The elution gradient was programmed as (i) 0–5 min, isocratic elution with 5% B; (ii) 5–20 min, linear gradient from 5% to 55% B; (iii) 20–22 min, linear gradient from 55% to 80% solution B; and finally (iv) 22–30 min, isocratic elution maintained at 80% solution B. The degradation of Ang-I and the formation of Ang-II were analyzed using selective ion chromatogram (SIC) on a triple quadrupole mass analyzer (TSQ, Thermo Scientific). The percentage of the remaining angiotensin I (RA%) at each time point was calculated as AI/(AI + AII) × 100%, where AI is the SIC peak area of remaining Ang-I and AII is the peak area of the resulting Ang-II.

[4] = no ACE pre-incubation, 2.5 mM HHL, ACE 0.05 mU/µL, borate buffer, 30 min static + 30 min 200 rpm, read-out: IC50 (μM) (Regular Assay)
[5] = peptide pre-incubated with ACE, then HHL assay, read-out: IC50 (μM) (Pre-Incubation)

Row | Substance | Substrate content (%) 30min (ACE [1]) | Substrate content (%) 60min (ACE [1]) | Substrate content (%) 90min (ACE [1]) | Substrate content (%) 120min (ACE [1]) | Substrate content (%) 150min (ACE [1]) | Substrate content (%) 180min (ACE [1]) | IC50 (ACE [2]; [4]) | IC50 (ACE [2]; [5]) | Hydrolysis of synthetic peptide by ACE (result in words) (ACE [1]; synthetic peptide incubated with ACE, 3 h, LC-MS/MS) | Ang-I remained (RA%) on co-incubation with peptide (ACE [3])
1 | HLPLPLLQSW [HW-10] | 2.47% | 0.00% | 0.00% | 0.00% | 0.00% | 0.00% | 10.6 ± 0.17 µM | 17.8 ± 0.65 µM | – | –
2 | LHLPLPLL [LL-8] | 58.04% | 37.06% | 22.61% | 11.41% | 7.12% | 6.82% | 12.3 ± 0.37 µM | 71.9 ± 2.19 µM | – | –
3 | FFVAPFPEVF [FF-10] | 76.08% | 49.76% | 34.59% | 32.31% | 21.80% | 14.21% | 104 ± 2.47 µM | 44.6 ± 3.06 µM | partially hydrolyzed | –
4 | YVPLGTQ [YQ-7] | 8.35% | 7.02% | 6.54% | 6.41% | 6.27% | 5.83% | 250 ± 7.9 µM | 189 ± 9.6 µM | – | –
5 | LVYPFPGPIHNSL [LL-13] | 7.80% | 7.20% | 6.25% | 5.68% | 2.64% | 1.05% | 38.9 ± 2.05 µM | 27.3 ± 2.16 µM | – | –
6 | AYFYPELFR [AR-9] | 2.40% | 1.59% | 0.00% | 0.00% | 0.00% | 0.00% | 6.8 ± 0.23 µM | 25.3 ± 0.96 µM | – | 73.9%
